Data: the supplement of paper PMC10307832

Tests used:
Assay in all cases: relative viability (nuclei count vs DMSO), 5 days (fraction); higher = more cells survive
Midostaurin + Alpelisib = compound: CO[C@@H]1[C@H](N(C)C(=O)c2ccccc2)C[C@H]2O[C@]1(C)n1c3ccccc3c3c4c(c5c6ccccc6n2c5c31)C(=O)NC4 [Midostaurin] + Cc1nc(NC(=O)N2CCC[C@H]2C(N)=O)sc1-c1ccnc(C(C)(C)C(F)(F)F)c1 [Alpelisib] (partner 2 µM)
How it was run: (§1)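 The day after seeding in 1536-well plates, lung cancer cell lines were treated by pin tool with a single drug, or with a fixed anchor-drug dose together with five library-drug doses (not always all listed) in √10 steps. After 5 days, a combined fix-and-stain solution (final 0.05% Triton X-100, 1% formaldehyde, 1 ug/ml Hoechst) was added. Nuclei counted on 4× images gave relative viability as treated counts over vehicle counts, reported as the median of duplicate plates.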

Midostaurin + Pemetrexed = compound: CO[C@@H]1[C@H](N(C)C(=O)c2ccccc2)C[C@H]2O[C@]1(C)n1c3ccccc3c3c4c(c5c6ccccc6n2c5c31)C(=O)NC4 [Midostaurin] + Nc1nc2[nH]cc(CCc3ccc(C(=O)N[C@@H](CCC(=O)O)C(=O)O)cc3)c2c(=O)[nH]1 [Pemetrexed] (partner 0.2 µM)
How it was run: as §1

Midostaurin + Olaparib = compound: CO[C@@H]1[C@H](N(C)C(=O)c2ccccc2)C[C@H]2O[C@]1(C)n1c3ccccc3c3c4c(c5c6ccccc6n2c5c31)C(=O)NC4 [Midostaurin] + O=C(c1cc(Cc2n[nH]c(=O)c3ccccc23)ccc1F)N1CCN(C(=O)C2CC2)CC1 [Olaparib] (partner 8 µM)
How it was run: as §1

[1] = compound: COc1cc(-c2nn([C@H]3CC[C@H](N4CCN(C(C)=O)CC4)CC3)c3ncnc(N)c23)ccc1NC(=O)c1cc2ccccc2n1C + C[C@]1(O)C[C@@H](c2nc(-c3ccc4ccc(-c5ccccc5)nc4c3)c3c(N)nccn32)C1 [Linsitinib] (partner 1 µM)
How it was run: as §1

[2] = compound: COc1cc(-c2nn([C@H]3CC[C@H](N4CCN(C(C)=O)CC4)CC3)c3ncnc(N)c23)ccc1NC(=O)c1cc2ccccc2n1C + O=C(c1cc(Cc2n[nH]c(=O)c3ccccc23)ccc1F)N1CCN(C(=O)C2CC2)CC1 [Olaparib] (partner 8 µM)
How it was run: as §1

Row | Cell Line | relative viability (Midostaurin + Alpelisib; first compound 0.01 µM) | relative viability (Midostaurin + Alpelisib; first compound 0.03162 µM) | relative viability (Midostaurin + Alpelisib; first compound 0.1 µM) | relative viability (Midostaurin + Alpelisib; first compound 0.3162 µM) | relative viability (Midostaurin + Pemetrexed; first compound 0.01 µM) | relative viability (Midostaurin + Pemetrexed; first compound 0.03162 µM) | relative viability (Midostaurin + Pemetrexed; first compound 0.1 µM) | relative viability (Midostaurin + Pemetrexed; first compound 0.3162 µM) | relative viability (Midostaurin + Olaparib; first compound 0.01 µM) | relative viability (Midostaurin + Olaparib; first compound 0.03162 µM) | relative viability (Midostaurin + Olaparib; first compound 0.1 µM) | relative viability (Midostaurin + Olaparib; first compound 0.3162 µM) | relative viability ([1]; first compound 0.0128 µM) | relative viability ([1]; first compound 0.04048 µM) | relative viability ([1]; first compound 0.128 µM) | relative viability ([1]; first compound 1.28 µM) | relative viability ([2]; first compound 0.0128 µM) | relative viability ([2]; first compound 0.04048 µM) | relative viability ([2]; first compound 0.128 µM) | relative viability ([2]; first compound 1.28 µM)
1 | NCI-H650 | 1.04 | 1.07 | 1.11 | 0.63 | 0.906 | 0.892 | 0.99 | 0.686 | 0.36 | 0.406 | 0.412 | 0.313 | 0.854 | 1.26 | 0.894 | 0.64 | 0.418 | 0.453 | 0.407 | 0.468
2 | NCI-H661 | 0.684 | 0.601 | 0.758 | 0.661 | 0.915 | 0.82 | 0.902 | 0.904 | 0.721 | 0.7 | 0.714 | 0.717 | 0.618 | 0.507 | 0.448 | 0.357 | 0.817 | 0.843 | 0.724 | 0.763
3 | NCI-H1793 | 0.705 | 0.601 | 0.664 | 0.662 | 0.926 | 1.01 | 0.782 | 0.673 | 0.923 | 0.804 | 0.644 | 0.431 | 0.99 | 0.979 | 0.712 | 0.545 | 0.989 | 1.08 | 0.731 | 0.427
4 | NCI-H1734 | 0.656 | 0.618 | 0.69 | 0.742 | 0.421 | 0.405 | 0.446 | 0.456 | 0.603 | 0.562 | 0.62 | 0.69 | 0.847 | 0.772 | 0.873 | 0.717 | 0.621 | 0.562 | 0.649 | 0.539
5 | LXF-289 | 0.997 | 1.02 | 0.952 | 0.976 | 0.891 | 0.903 | 0.888 | 0.896 | 1.13 | 1.05 | 1.04 | 0.992 | 1.02 | 0.927 | 0.939 | 1.08 | 1.17 | 1.08 | 1.11 | 0.982
6 | H3255 | 0.724 | 0.7 | 0.698 | 0.7 | 0.571 | 0.494 | 0.529 | 0.579 | 0.515 | 0.538 | 0.498 | 0.533 | 1.04 | 0.935 | 0.887 | 0.663 | 0.616 | 0.579 | 0.558 | 0.491
7 | 201T | 1.04 | 1.01 | 1.02 | 1.08 | 0.345 | 0.311 | 0.323 | 0.32 | 0.833 | 0.801 | 0.815 | 0.86 | 0.979 | 1.05 | 0.927 | 0.665 | 0.899 | 0.896 | 0.767 | 0.623
8 | NCI-H2126 | 0.772 | 0.733 | 0.765 | 0.804 | 0.672 | 0.627 | 0.711 | 0.688 | 0.813 | 0.901 | 0.853 | 0.779 | 0.825 | 0.765 | 0.701 | 0.537 | 0.952 | 0.961 | 0.656 | 0.74
9 | HOP-62 | 0.957 | 0.636 | 0.913 | 1.32 | 0.332 | 0.278 | 0.326 | 0.41 | 0.321 | 0.452 | 0.414 | 0.372 | 0.955 | 0.964 | 0.881 | 0.843 | 0.657 | 0.533 | 0.366 | 0.478
10 | CAL-12T | 1.28 | 0.765 | 0.816 | 1.09 | 1.19 | 1.19 | 1.28 | 0.765 | 0.76 | 0.585 | 0.681 | 0.633 | 0.851 | 0.533 | 0.801 | 0.74 | 0.682 | 0.763 | 0.811 | 0.697
11 | NCI-H520 | 0.891 | 0.882 | 0.845 | 0.981 | 0.662 | 0.723 | 0.736 | 0.407 | 0.32 | 0.318 | 0.266 | 0.249 | 0.715 | 0.795 | 0.9 | 0.683 | 0.388 | 0.398 | 0.286 | 0.265
12 | NCI-H1755 | 0.921 | 0.912 | 0.75 | 0.694 | 0.447 | 0.469 | 0.42 | 0.431 | 0.864 | 0.884 | 0.783 | 0.779 | 1.12 | 0.966 | 0.92 | 0.939 | 0.888 | 0.922 | 0.832 | 0.863
13 | NCI-H2023 | 0.608 | 0.563 | 0.526 | 0.583 | 0.194 | 0.244 | 0.227 | 0.19 | 0.494 | 0.505 | 0.396 | 0.246 | 0.7 | 0.641 | 0.624 | 0.531 | 0.519 | 0.505 | 0.414 | 0.449
14 | NCI-H2009 | 1.24 | 1.01 | 1.05 | 1.16 | 0.956 | 0.878 | 0.921 | 1.06 | 0.696 | 0.668 | 0.611 | 0.512 | 1.2 | 1.18 | 1.2 | 0.931 | 0.706 | 0.714 | 0.674 | 0.69
